Source: PMC8523698, “Preclinical characterization of an intravenous coronavirus 3CL protease inhibitor for the potential treatment of COVID19” (Nature Communications, 2021)
Values joined by “and” are separate entries in the source; they are usually repeats but may differ in a detail not shown here. Equal values may be shown once. Read-outs that look alike come from different tables or passages of the source.

Key:
[1] = Secondary/off-target pharmacology panel (Eurofins Cerep); details: assessed at 100 µM
MRC-5 cells = assay: Cytotoxicity in MRC-5 cells; details: MRC-5, plus 0.5 uM efflux inhibitor; one value per run date (N=3)
hERG channel = hERG channel (Homo sapiens, UniProt Q12809); assay: hERG potassium channel current assay
CYP2C9 = CYP2C9 (Homo sapiens, UniProt P11712); assay: Reversible CYP inhibition in human liver microsomes; details: for activity at 0.01 µM / activity at 0.158 µM / activity at 0.398 µM / activity at 1 µM / activity at 15.8 µM / activity at 39.8 µM / activity at 100 µM: human, microsomes, pH 7.4, Percent of Control Activity
OCT1 = molecular target: T1, OCT1 (Homo sapiens, UniProt O15245); assay: Transporter inhibition using transfected HEK293 cells; assay type: in vitro ADME; details: IC50, [14C]Metformin (10 µM)
T1 construct: expressed in transfected cells; host or cells: HEK293
T1 sequence (O15245 1-554): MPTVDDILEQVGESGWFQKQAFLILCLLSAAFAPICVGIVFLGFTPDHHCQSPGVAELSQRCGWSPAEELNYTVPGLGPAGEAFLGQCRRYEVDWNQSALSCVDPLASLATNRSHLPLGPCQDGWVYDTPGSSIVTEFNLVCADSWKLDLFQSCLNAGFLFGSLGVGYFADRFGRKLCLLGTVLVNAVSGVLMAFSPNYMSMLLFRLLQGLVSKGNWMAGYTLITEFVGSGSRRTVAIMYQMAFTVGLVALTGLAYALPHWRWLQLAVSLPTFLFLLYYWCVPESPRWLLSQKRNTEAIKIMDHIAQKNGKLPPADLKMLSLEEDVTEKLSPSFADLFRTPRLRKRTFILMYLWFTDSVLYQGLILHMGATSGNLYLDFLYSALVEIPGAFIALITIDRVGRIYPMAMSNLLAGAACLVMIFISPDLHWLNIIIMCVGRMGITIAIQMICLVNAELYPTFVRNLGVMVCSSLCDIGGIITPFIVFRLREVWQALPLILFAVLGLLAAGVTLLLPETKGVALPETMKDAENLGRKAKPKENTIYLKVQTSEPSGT

OATP1B3 = molecular target: T2, OATP1B3 (Homo sapiens, UniProt Q9NPD5); assay: as above; details: IC50, Rosuvastatin (0.5 µM)
T2 sequence (Q9NPD5 1-702): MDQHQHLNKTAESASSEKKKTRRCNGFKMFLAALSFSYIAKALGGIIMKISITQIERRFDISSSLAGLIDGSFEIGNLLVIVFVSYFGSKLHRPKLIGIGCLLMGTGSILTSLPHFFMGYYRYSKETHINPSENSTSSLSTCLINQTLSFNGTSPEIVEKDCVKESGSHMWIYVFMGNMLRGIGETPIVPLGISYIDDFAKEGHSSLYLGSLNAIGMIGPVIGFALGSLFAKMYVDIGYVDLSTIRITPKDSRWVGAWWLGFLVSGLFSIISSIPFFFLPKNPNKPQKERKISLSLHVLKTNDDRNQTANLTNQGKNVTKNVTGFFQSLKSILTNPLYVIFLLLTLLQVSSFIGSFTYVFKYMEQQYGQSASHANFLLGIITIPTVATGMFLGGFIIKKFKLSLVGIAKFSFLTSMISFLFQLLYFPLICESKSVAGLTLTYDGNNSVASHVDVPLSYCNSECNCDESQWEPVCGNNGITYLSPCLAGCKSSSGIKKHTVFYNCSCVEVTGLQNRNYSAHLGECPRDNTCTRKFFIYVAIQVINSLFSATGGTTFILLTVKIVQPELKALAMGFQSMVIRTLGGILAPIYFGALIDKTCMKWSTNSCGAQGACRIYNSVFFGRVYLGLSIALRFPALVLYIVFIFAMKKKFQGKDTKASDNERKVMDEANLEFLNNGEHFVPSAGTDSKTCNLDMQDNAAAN

CYP2C9, sequence (P11712 whole entry): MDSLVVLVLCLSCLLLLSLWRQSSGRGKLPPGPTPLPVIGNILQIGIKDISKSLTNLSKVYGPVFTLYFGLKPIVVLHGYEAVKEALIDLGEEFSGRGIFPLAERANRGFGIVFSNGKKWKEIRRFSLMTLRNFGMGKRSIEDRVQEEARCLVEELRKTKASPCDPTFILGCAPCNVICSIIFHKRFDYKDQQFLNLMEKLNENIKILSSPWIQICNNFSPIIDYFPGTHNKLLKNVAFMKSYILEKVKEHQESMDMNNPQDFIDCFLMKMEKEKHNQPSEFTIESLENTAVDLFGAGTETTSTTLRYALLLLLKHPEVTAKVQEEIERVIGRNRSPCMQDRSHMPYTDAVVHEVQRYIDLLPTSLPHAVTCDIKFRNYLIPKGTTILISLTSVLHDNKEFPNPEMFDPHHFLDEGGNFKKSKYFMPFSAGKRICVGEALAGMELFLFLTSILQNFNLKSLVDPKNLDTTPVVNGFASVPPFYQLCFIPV
hERG channel, sequence (Q12809 whole entry): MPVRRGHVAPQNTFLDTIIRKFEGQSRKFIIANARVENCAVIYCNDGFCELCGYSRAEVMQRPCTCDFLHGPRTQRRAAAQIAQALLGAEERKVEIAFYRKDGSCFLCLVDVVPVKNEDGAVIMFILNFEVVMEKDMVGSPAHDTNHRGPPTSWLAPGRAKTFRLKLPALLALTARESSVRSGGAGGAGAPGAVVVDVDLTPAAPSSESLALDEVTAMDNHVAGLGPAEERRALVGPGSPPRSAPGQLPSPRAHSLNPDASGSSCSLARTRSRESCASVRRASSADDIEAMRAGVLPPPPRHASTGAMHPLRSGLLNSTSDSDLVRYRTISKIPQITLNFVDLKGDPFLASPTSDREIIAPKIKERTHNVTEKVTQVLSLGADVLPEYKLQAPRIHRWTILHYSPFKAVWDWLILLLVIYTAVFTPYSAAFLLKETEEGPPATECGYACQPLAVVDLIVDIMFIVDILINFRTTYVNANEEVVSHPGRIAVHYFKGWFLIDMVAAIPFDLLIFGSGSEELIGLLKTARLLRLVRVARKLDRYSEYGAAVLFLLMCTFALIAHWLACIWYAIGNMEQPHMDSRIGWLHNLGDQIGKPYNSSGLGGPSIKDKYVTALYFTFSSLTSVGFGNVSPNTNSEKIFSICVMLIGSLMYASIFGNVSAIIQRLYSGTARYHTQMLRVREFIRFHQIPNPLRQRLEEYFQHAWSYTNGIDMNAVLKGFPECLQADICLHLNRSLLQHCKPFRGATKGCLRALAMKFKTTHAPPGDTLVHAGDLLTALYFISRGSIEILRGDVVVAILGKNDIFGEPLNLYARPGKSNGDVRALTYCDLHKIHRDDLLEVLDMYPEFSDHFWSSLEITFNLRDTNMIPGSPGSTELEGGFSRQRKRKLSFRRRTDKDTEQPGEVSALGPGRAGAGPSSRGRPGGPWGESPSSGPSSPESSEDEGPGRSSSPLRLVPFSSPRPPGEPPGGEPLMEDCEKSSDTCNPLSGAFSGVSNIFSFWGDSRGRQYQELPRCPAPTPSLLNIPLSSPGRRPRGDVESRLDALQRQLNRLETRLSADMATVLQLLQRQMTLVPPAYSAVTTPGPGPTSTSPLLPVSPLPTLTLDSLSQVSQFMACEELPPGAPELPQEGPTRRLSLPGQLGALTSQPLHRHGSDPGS

For `COc1cccc2[nH]c(C(=O)N[C@@H](CC(C)C)C(=O)N[C@@H](C[C@@H]3CCNC3=O)C(=O)COP(=O)(O)O)cc12` [PF-07304814], the “secondary (off-target) pharmacology” value [1] was “minimal potential for secondary (off-target) pharmacology”, the CC50 (MRC-5 cells) was > 100 µM and the “hERG margin in reference to projected unbound human Cmax” value (hERG channel; 300 µM vs projected Cmax at projected human efficacious dose) was 1,770 fold. The “concentration up to which hERG current amplitude was not inhibited” value (hERG channel; human) was 300 µM, the IC50 (CYP2C9) was > 100 µM and the “Percent of Control Activity” value (CYP2C9; CYP 2C9, 0.01 µM, 30-Minute Preincubation, 0.01 µM) was 99.6% and 105.4%. For the same compound, the “Percent of Control Activity” value (CYP2C9; CYP 2C9, 0.01 µM, Zero-Minute Preincubation, 0.01 µM) was 102.7% and 88.8%, the “Percent of Control Activity” value (CYP2C9; CYP 2C9, 0.158 µM, 30-Minute Preincubation, 0.158 µM) was 97.3% and 103.8% and the “Percent of Control Activity” value (CYP2C9; CYP 2C9, 0.158 µM, Zero-Minute Preincubation, 0.158 µM) was 103.7% and 96.2%. For the same compound, the “Percent of Control Activity” value (CYP2C9; CYP 2C9, 0.398 µM, 30-Minute Preincubation, 0.398 µM) was 96.2%, the “Percent of Control Activity” value (CYP2C9; CYP 2C9, 0.398 µM, Zero-Minute Preincubation, 0.398 µM) was 103.2% and 91.4% and the “Percent of Control Activity” value (CYP2C9; CYP 2C9, 1 µM, 30-Minute Preincubation, 1 µM) was 98.0% and 100.0%. The “Percent of Control Activity” value (CYP2C9; CYP 2C9, 1 µM, Zero-Minute Preincubation, 1 µM) was 88.9%, the “Percent of Control Activity” value (CYP2C9; CYP 2C9, 15.8 µM, 30-Minute Preincubation, 15.8 µM) was 97.7% and 102.2% and the “Percent of Control Activity” value (CYP2C9; CYP 2C9, 15.8 µM, Zero-Minute Preincubation, 15.8 µM) was 104.1% and 92.6%. For the same compound, the “Percent of Control Activity” value (CYP2C9; CYP 2C9, 39.8 µM, 30-Minute Preincubation, 39.8 µM) was 98.6% and 102.8%, the “Percent of Control Activity” value (CYP2C9; CYP 2C9, 39.8 µM, Zero-Minute Preincubation, 39.8 µM) was 101.8% and 92.4% and the “Percent of Control Activity” value (CYP2C9; CYP 2C9, 100 µM, 30-Minute Preincubation, 100 µM) was 97.1% and 95.4%. The “Percent of Control Activity” value (CYP2C9; CYP 2C9, 100 µM, Zero-Minute Preincubation, 100 µM) was 91.7%, the IC50 (CYP2C9; Diclofenac 4′-hydroxylation, T30) was > 100 µM and the activity at 0.01 µM (CYP2C9; CYP 2C9, 0.01 µM, 30-Minute Preincubation) was 100%. For the same compound, the activity at 0.01 µM (CYP2C9; CYP 2C9, 0.01 µM, Zero-Minute Preincubation) was 98.2%, the activity at 0.158 µM (CYP2C9; CYP 2C9, 0.158 µM, 30-Minute Preincubation) was 98.3% and the activity at 0.158 µM (CYP2C9; CYP 2C9, 0.158 µM, Zero-Minute Preincubation) was 103%. The activity at 0.398 µM (CYP2C9; CYP 2C9, 0.398 µM, 30-Minute Preincubation) was 106%, the activity at 0.398 µM (CYP2C9; CYP 2C9, 0.398 µM, Zero-Minute Preincubation) was 102% and the activity at 1 µM (CYP2C9; CYP 2C9, 1 µM, 30-Minute Preincubation) was 100%. It also gave an activity at 1 µM (CYP2C9; CYP 2C9, 1 µM, Zero-Minute Preincubation) of 100%, an activity at 15.8 µM (CYP2C9; CYP 2C9, 15.8 µM, 30-Minute Preincubation) of 98.8% and an activity at 15.8 µM (CYP2C9; CYP 2C9, 15.8 µM, Zero-Minute Preincubation) of 106%. It also gave an activity at 39.8 µM (CYP2C9; CYP 2C9, 39.8 µM, 30-Minute Preincubation) of 101%, an activity at 39.8 µM (CYP2C9; CYP 2C9, 39.8 µM, Zero-Minute Preincubation) of 105% and an activity at 100 µM (CYP2C9; CYP 2C9, 100 µM, 30-Minute Preincubation) of 96.5%. The activity at 100 µM (CYP2C9; CYP 2C9, 100 µM, Zero-Minute Preincubation) was 101%, the IC50 (OCT1) was > 300 µM and the IC50 (OATP1B3) was 202 µM and > 130 µM.
